Data reported in BindingDB's records for PubMed 36262403 (Abbvie, 2022).
pIC50: −log10 of the molar value.

Molecular target: T1, P2X purinoceptor 7 (Rattus norvegicus, UniProt Q64663)
T1 sequence (Q64663 whole entry): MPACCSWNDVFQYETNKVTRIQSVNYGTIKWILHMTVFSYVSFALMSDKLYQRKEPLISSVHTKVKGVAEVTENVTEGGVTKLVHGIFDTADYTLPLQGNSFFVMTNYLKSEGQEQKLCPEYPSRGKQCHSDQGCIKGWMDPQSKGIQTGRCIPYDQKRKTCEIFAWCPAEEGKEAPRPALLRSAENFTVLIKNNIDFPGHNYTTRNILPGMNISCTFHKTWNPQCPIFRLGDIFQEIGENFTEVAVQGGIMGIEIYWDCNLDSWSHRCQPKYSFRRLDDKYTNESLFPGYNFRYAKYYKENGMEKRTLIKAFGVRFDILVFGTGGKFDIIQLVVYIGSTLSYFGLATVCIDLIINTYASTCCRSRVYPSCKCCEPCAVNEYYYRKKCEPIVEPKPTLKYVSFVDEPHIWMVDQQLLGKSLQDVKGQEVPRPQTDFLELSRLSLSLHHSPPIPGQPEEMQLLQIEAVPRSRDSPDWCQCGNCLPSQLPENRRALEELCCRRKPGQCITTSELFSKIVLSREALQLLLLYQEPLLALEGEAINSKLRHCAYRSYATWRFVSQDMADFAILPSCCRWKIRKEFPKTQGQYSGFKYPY
Assay: Antagonist activity against rat P2X7R expressed in human 1321N1 cell membrane incubated for 1 hrs by radioligand binding assay

`C[C@H](NC(=Nc1cccc2ncccc12)NC#N)c1ccccc1` [[3H]A-804598] showed a pIC50 of 8.00.
